According to patent US20070010477A1, “Acyl homoserine lactones for inhibition of cell growth” (priority 2005, published 2007):

How the values were obtained:
TS [1] = assay: Western blot of TS protein down-regulation in H630 cells; format: cell-based, human; conditions: for down-regulation of TS protein (activity in words): 18-20 hours after addition
Protocol: Conventional techniques were used to propagate and maintain the H630 and H630-1 cell lines (see, for example Dolnick, et al. (2003) Cancer Biology & Therapy, 2: 364-369; Stephanie, et al. (2001) In: Proceedings AACR, New Orleans, La., pp. 493). For the investigation of effects on TS expression, cells were extracted at 18-20 hours after the addition of AHLs. For Western blot analysis, proteins were extracted and Western blotting was performed by standard methods using blots blocked with 5% nonfat dried milk dissolved in 10 mM Tris-HCl, pH 8.0, 150 mM sodium chloride, 0.05% Tween-20. The blots were probed using either monoclonal (4D5E11) or polyclonal antibodies to TS and then probed for α-tubulin (monoclonal antibody B-5-1-2, Sigma Biochemicals) to confirm equivalent protein loading. The same blots were successively probed with anti-rTSβ or anti-TS, and finally anti-tubulin. After probing for each protein, the blots were stripped by incubation in 8 M guanidine HCl. Detection of rTS protein was performed with mouse monoclonal antibody D3, prepared against recombinant rTSβ protein. All Western blots were detected using the horseradish peroxidase-based West Pico Dura chemiluminescent substrate (Pierce) and horseradish peroxidase-coupled F(ab′)2 fragments (Jackson ImmunoResearch Laboratories, West Grove, Pa.) as secondary antibodies
These AHLs were synthesized as described previously (Chhabra, et al., 1993, J. Antibiotics 46, 441-454). For studies with the H630-1 cell line, AHLs were either dissolved in RPMI 1640 (hydroxy-butanoyl-, butanoyl-, 3-(oxo)-hexanoyl-homoserine lactones) or in dimethyl sulfoxide (DMSO) (hexanoyl-homoserine lactones) and added to mid-log H630 cells in RPMI1640 containing 10 μM methionine and 1× ITS+ culture supplement (BD Bioscience) in place of serum at the indicated concentrations. […] After 18 hr, the medium was removed, the cells washed twice and protein extracted. The extracted proteins were separated on denaturing polyacrylamide gels and probed for rTS, TS and tubulin using specific antibodies.
This embodiment describes the down regulation of TS by AHLs as a ftmction of time. H630 cells were incubated with medium containing 3-oxo-hexanoyl-L-HSL (3 mM) as described for Example 5. The extraction and analysis was also carried out as described in Example 5 at the indicated times after drug addition.
(§1) A variety of AHLs with acyl-chains containing 4- to 12-carbons (C4-C12) and 3-hydroxy or 3-keto substituents were prepared as described in Example 1 and analyzed for their effect on TS protein expression by Western blotting. Although several of the shorter chain AHLs (C4-C6) can cause loss of TS, the required concentrations are in the mM range. […] The latter observation indicates 3-oxo-C12-HSL has effects on gene expression aside from the down-regulation of TS. In this regard, FIG. 8C provides a photographic representation of the effect of 23 μmol/L 3-oxo-C12-HSL on TS mRNA levels in H630 cells (20 hours of exposure) as evaluated by RT-PCR. […] Microarray analysis of H630 RNA was done using the Affymetrix (Santa Clara, Calif.) HGU133A GeneChip. Microarray data was analyzed using Genetraffic software (Stratagene, La Jolla, Calif.) with the Robust Multichip Analysis method (Lauren et al., (2003) IEEE Trans Nanobioscience; 2:163-70) for measuring probe intensity and scaling. Results for treated and untreated cells were analyzed for significant changes within each experiment (P<0.05) as well as for changes in pooled data from three separate experiments. RNA for RT-PCR or microarray analysis was prepared using an RNAeasy kit from Qiagen (Valencia, Calif.).

tubulin = assay: Western blot of tubulin in H630 cells; format: cell-based, human; conditions: FIG. 8B
Protocol: Conventional techniques were used to propagate and maintain the H630 and H630-1 cell lines (see, for example Dolnick, et al. (2003) Cancer Biology & Therapy, 2: 364-369; Stephanie, et al. (2001) In: Proceedings AACR, New Orleans, La., pp. 493). For the investigation of effects on TS expression, cells were extracted at 18-20 hours after the addition of AHLs. For Western blot analysis, proteins were extracted and Western blotting was performed by standard methods using blots blocked with 5% nonfat dried milk dissolved in 10 mM Tris-HCl, pH 8.0, 150 mM sodium chloride, 0.05% Tween-20. […] All Western blots were detected using the horseradish peroxidase-based West Pico Dura chemiluminescent substrate (Pierce) and horseradish peroxidase-coupled F(ab′)2 fragments (Jackson ImmunoResearch Laboratories, West Grove, Pa.) as secondary antibodies
A variety of AHLs with acyl-chains containing 4- to 12-carbons (C4-C12) and 3-hydroxy or 3-keto substituents were prepared as described in Example 1 and analyzed for their effect on TS protein expression by Western blotting. […] In this regard, FIG. 8C provides a photographic representation of the effect of 23 μmol/L 3-oxo-C12-HSL on TS mRNA levels in H630 cells (20 hours of exposure) as evaluated by RT-PCR. […]

TS mRNA = assay: RT-PCR of TS mRNA levels in H630 cells; format: cell-based, human; conditions: 23 μmol/L, 20 hours of exposure
Protocol: as §1, with “Calif.). […]” for “Calif.).”

H630 cells [2] = assay: Growth inhibition, cells counted 3 days after addition; format: cell-based, human
MCF-7 cells = assay: Growth inhibition; format: cell-based, human; conditions: MCF-7 breast cancer cell line
[3] = test system: PC-3 (prostate cancer cells); assay: Sulforhodamine-B growth inhibition assay, 5 days; format: cell-based, human; conditions: PC-3 cells, SRB staining
Protocol: (§2) For growth inhibition assays described in this Example, H630, H630-1 and PC-3 (prostate cancer cells) cells were growth in the presence of HSL analog for 5 days. At the end of day 5, cells were fixed and stained with Sulforhodamine-B (SRB), a protein-staining dye. Excess SRB was removed leaving only dye bound to proteins from cells. Protein-bound SRB was then dissolved in base and quantified by spectrophotometric absorbance. In this assay, the amount of SRB bound to protein correlates with the number of cells present, allowing for the analysis of growth of treated versus untreated samples. The HSL analogs are administered at 10 concentrations, spanning a 5 log range.
(§3) The data points in the graphs of FIGS. 13A-13C represent % control growth at a given HSL analog concentration. IC50 values represent the concentration of HSL analog at which growth of the treated cells is inhibited by 50%. The structure of the tested compounds, designated by number, are as set forth in FIG. 13 from which it can be sent that the phenyl-HSL analogs tested range from C5 (compound 12) to C14 (compound 25). […] This effect decreases as the chain length reaches C14, as indicated by an increase in the IC50 values. […] Specifically, the C10 phenyl analog (compound 20) is equally as active as the 3-oxo-C12 HSL used as a positive control, despite having two fewer carbons in the alkyl chain.

H630 = assay: Sulforhodamine-B growth inhibition assay, 5 days; format: cell-based, human; conditions: H630 cells, SRB staining
Protocol: as §2, §3

H630-1 = assay: Sulforhodamine-B growth inhibition assay, 5 days; format: cell-based, human; conditions: H630-1 cells, SRB staining
Protocol: as §2, §3

NCI-H460 = assay: Growth inhibition; format: cell-based, human; conditions: NCI-H460 lung cancer cell line
TS [4] = target: T1, TS (Homo sapiens, UniProt P04818); assay: TS modulation assay (luciferase mRNA containing TS binding elements) in H630 cells; format: cell-based; conditions: H630 cells treated with IC50 concentration
T1 construct: effects of AHLs on TS and tubulin in H630 cells; endogenous in cells; host or cells: H630 human colon cancer cells

H630-1 cells [5] = assay: Growth inhibition, cells counted 3 days after addition; format: cell-based, human
H630 cells [6] = assay: Colony formation assay; conditions: for enhancement of activity by 3-oxo-C12-HSL: colony formation, 23 μM 3-oxo-C12-HSL
H630-1 cells [7] = assay: Colony formation assay; format: cell-based, human; conditions: for enhancement of activity by 3-oxo-C12-HSL: colony formation, 8 μM 3-oxo-C12-HSL

T1 sequence (P04818 whole entry): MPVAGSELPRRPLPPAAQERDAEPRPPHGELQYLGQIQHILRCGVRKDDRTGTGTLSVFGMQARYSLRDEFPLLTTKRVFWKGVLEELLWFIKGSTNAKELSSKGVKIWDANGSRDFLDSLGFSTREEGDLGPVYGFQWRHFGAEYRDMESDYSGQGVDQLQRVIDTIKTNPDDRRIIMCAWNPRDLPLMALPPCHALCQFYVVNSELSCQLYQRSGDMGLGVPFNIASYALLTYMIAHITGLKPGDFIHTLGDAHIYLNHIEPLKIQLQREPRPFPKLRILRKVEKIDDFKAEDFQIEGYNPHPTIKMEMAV

CCCCCC(=O)NC1CCOC1=O (racemic) [C6-HSL racemic mix, hexanoyl-homoserine lactone]
down-regulation of TS protein (activity in words) (TS [1]; Western blot): less active

CCCCCC(=O)N[C@H]1CCOC1=O (single isomer, unassigned) [(L)-isomer of C6-HSL, N-hexanoyl (L-)-homoserine lactone]
down-regulation of TS protein (activity in words) (TS [1]; Western blot): active

CCCC(=O)CC(=O)OCC [3-(oxo)-ethylhexanoate, reference compound]
down-regulation of TS protein (activity in words) (TS [1]; Western blot): inactive

CCCCCCCCCC(=O)CC(=O)N[C@H]1CCOC1=O [3-oxo-C12-HSL, 3-oxo-C12 homoserine lactone]
concentration needed to reduce the amount of TS (TS [1]; FIG. 8B): 1 to 10 µM | lowest concentration causing down-regulation of TS (TS [1]; Western blot, FIG. 8B): 10 µM | effect on tubulin with increasing concentrations (tubulin): appears to decrease | TS mRNA levels (TS mRNA): unaffected | IC50 (H630 cells [2]; 3 days): 23 µM | growth inhibition, relative activity of stereoisomer (H630 cells [2]; FIG. 9B): more active than the racemic mixture | IC50 (MCF-7 cells): 16 µM | IC50 [3]: 10 µM | IC50 (H630): 35 µM | IC50 (H630-1): 12 µM | IC50 (NCI-H460): 35 µM | TS modulatory activity (luminescence) (TS [4]): no detectable TS modulatory activity | IC50 (H630-1 cells [5]): 8 µM | IC50 (H630 cells [6]; read-out: IC50 for inhibition of cell growth in a clonogenic assay, H630 cells, FIG. 9B solid circles): ~10 µM

CCCCCC(=O)NC1CCOC1=O (stereo not shown) [C6-(D)—HSL]
down-regulation of TS protein (activity in words) (TS [1]; Western blot): inactive

CCCC(=O)CC(=O)N[C@H]1CCOC1=O [Compound 3-oxo-C6-HSL, 3-oxo-N-hexanoyl-(L-)homoserine lactone]
time for which the TS reduction is maintained (TS [1]; 3 mM): approximately 24 hours | reduction of TS levels (TS [1]; 3 mM, after 16 hours): approximately 50% | TS modulatory activity (luminescence) (TS [4]): potent modulator of TS

CCCCCCCCCCCC(=O)N[C@H]1CCOC1=O [Compound C12-HSL]
down-regulation of TS protein (TS [1]; at concentrations as high as 100 μM): inactive | IC50 (H630 cells [2]; FIG. 9B, read-out: IC50 growth inhibition): 1000 µM

O=c1[nH]cc(F)c(=O)[nH]1 [FU, 5-fluorouracil]
enhancement of activity by 3-oxo-C12-HSL (H630-1 cells [7]): No enhancement | IC50 (H630 cells [6]; Homo sapiens, NCI-H630, 336 h, read-out: apparent IC50 of FU, FU alone): 1 µM

O=c1[nH]c(=O)n([C@H]2C[C@H](O)[C@@H](CO)O2)cc1F [FUdR, fluorodeoxyuridine]
enhancement of activity by 3-oxo-C12-HSL (H630 cells [6]; H630 cells): enhancement

O=c1[nH]c(=O)n([C@@H]2O[C@H](CO)[C@@H](O)[C@H]2O)cc1F [FUrd, 5-fluorouridine]
enhancement of activity by 3-oxo-C12-HSL (H630 cells [6]; H630 cells): no enhancement

COc1cccc2c1C(=O)c1c(O)c3c(c(O)c1C2=O)C[C@@](O)(C(=O)CO)C[C@@H]3O[C@H]1C[C@H](N)[C@H](O)[C@H](C)O1 [adriamycin]
enhancement of activity by 3-oxo-C12-HSL (H630 cells [6]; H630 cells): not

CN(Cc1cnc2nc(N)nc(N)c2n1)c1ccc(C(=O)N[C@@H](CCC(=O)O)C(=O)O)cc1 [methotrexate]
enhancement of activity by 3-oxo-C12-HSL (H630 cells [6]; H630 cells): not

CC(=O)O[C@H]1C(=O)[C@@]2(C)[C@H]([C@H](OC(=O)c3ccccc3)[C@]3(O)C[C@H](OC(=O)[C@H](O)[C@@H](NC(=O)c4ccccc4)c4ccccc4)C(C)=C1C3(C)C)[C@]1(OC(C)=O)CO[C@@H]1C[C@@H]2O [taxol]
IC50 (H630-1 cells [7]; Homo sapiens, FIG. 11E): 0.02 µM | enhancement of activity by 3-oxo-C12-HSL (H630-1 cells [7]): some enhancement | enhancement of activity by 3-oxo-C12-HSL (H630 cells [6]; H630 cells): some enhancement | IC50 (H630 cells [6]; Homo sapiens, NCI-H630, read-out: IC50 colony formation): 0.006 µM

Cc1nc2ccc(CN(C)c3ccc(C(=O)N[C@@H](CCC(=O)O)C(=O)O)s3)cc2c(=O)[nH]1 [tomudex]
enhancement of activity by 3-oxo-C12-HSL (H630 cells [6]; H630 cells): enhancement
